Measured values as given in patent US10220038B2, “Pharmaceutical combinations” (Novartis AG, priority 2013, dated 2019).

Tests used:
[1] = Tolerability in HSAX2655-tumor bearing mice (body weight, survival); assay type: in vivo; details: p.o., q24h, Compound A 30 mg/kg, Compound C 75 mg/kg, day 14 post 1st treatment; for Host Survival: survivors/group
Protocol: Compounds A and C were formulated fresh for each administration. The compounds were dissolved in 0.5% methylcellulose. For efficacy experiments, mice were randomized into groups of n=5 and treated for 14 days. Compound A was injected at 30 mg/kg and Compound C at 75, 150 and 250 mg/kg. Mice were treated daily (q24 h) p.o. at 10 ml/kg for both drugs. On the last day of experiment, mice from each treatment group were sacrificed 4 and 24 h post last treatment and tumors were snap-frozen.
Efficacy and tolerability were assessed by determining tumor volume and body weight, respectively. Tumor volume (TVol), determined from caliper measurements (using the formula I*w*h*π/6) were measured three times per week. Tumor response was quantified by the change in tumor volume (endpoint minus starting value in mm^3) as the T/C i.e.
[formula] The body-weight (BW) of the mice was measured three times per week allowing calculation at any particular time-point relative to the day of initiation of treatment (day 0) of both the percentage change in BW (Δ % BW).
Differences between the means of TVol and BW were assessed on the endpoint ΔTvol or % ΔBW using a 1-way ANOVA with Dunnett or Tukey's tests post-hoc. Linear correlations were explored by determining Pearson correlation coefficient, with P<0.05 considered as significant.

HSAX2655 tumor = assay: Well differentiated liposarcoma (WDLPS) patient-derived in vivo model HSAX2655, efficacy; set-up: species or system Harlan nude mice; details: p.o., q24h, Compound A 30 mg/kg, Compound C 75 mg/kg; for Tumor T/C: day 14 post 1st treatment; for Tumor ΔTvol: day 37 post transplantation (day 14 post 1st treatment)
Protocol: PDX tumors were induced by transplanting subcutaneously frozen pieces of tumors in the right flank of Harlan nude mice. After several weeks of growth, donor animals were sacrificed and tumors were taken out and cut in 3×3×3 mm^3 pieces. Each tumor piece was transplanted subcutaneously in the right flank of naive Harlan nude mice. Efficacy experiment could start 30 days post transplantation. Compounds A and C were formulated fresh for each administration. The compounds were dissolved in 0.5% methylcellulose. For efficacy experiments, mice were randomized into groups of n=5 and treated for 14 days. Compound A was injected at 30 mg/kg and Compound C at 75, 150 and 250 mg/kg. Mice were treated daily (q24 h) p.o. at 10 ml/kg for both drugs. On the last day of experiment, mice from each treatment group were sacrificed 4 and 24 h post last treatment and tumors were snap-frozen. Efficacy and tolerability were assessed by determining tumor volume and body weight, respectively. Tumor volume (TVol), determined from caliper measurements (using the formula I*w*h*π/6) were measured three times per week. Tumor response was quantified by the change in tumor volume (endpoint minus starting value in mm^3) as the T/C i.e. [formula] In the case of tumor regression, the tumor response was quantified by the percentage of regression of the starting TVol, ie Differences between the means of TVol and BW were assessed on the endpoint ΔTvol or % ΔBW using a 1-way ANOVA with Dunnett or Tukey's tests post-hoc. Linear correlations were explored by determining Pearson correlation coefficient, with P<0.05 considered as significant. A non-statistical analysis of the combination effects of therapy on the efficacy were calculated using a modification of the method described by Clark (1997) to obtain a Combination Index (CI). Thus, multiplication of the AUC-T/Cs for single agents A and B was compared to the AUC-T/C obtained for the actual combination A+B.

[2] = tested on: liposarcoma cell line 778; assay: Microscopy (nuclei count) proliferation assay, 72 hrs, 778 cells; assay type: cell-based; details: single agent
Protocol: (§1) Compounds B and C were dissolved in 100% DMSO (Sigma, Catalog number D2650) at concentrations of 10 mM and stored at −20° C. until use. Compounds were arrayed in 300 uL deep well 384-well plates (BrandTec, Catalog number 701355) at 8× the highest final concentration. Row and column dilutions were prepared separately using a Bravo liquid handler (Agilent Technologies). Dilutions were made at 1:2 giving a total of 10 dilutions for each compound. Once completed the row and column dilution plates were combined 1:1 giving a final stamping plate at 4× concentration.
(§2) The cell lines 449b, 778 and LP6 were cultured in RPMI1640 (ATCC, Catalog number 30-2110) supplemented with 10% FBS (HyClone, Catalog number SH30071.03) at 37° C. and 5% CO2. In all cases cells were thawed from frozen stocks, expanded through ≥1 passage using 1:6 dilutions. Cells were counted and assessed for viability using a ViCell counter (Beckman-Coulter). The identity of all the cell lines was confirmed by SNP profiling.
All cells were seeded at a concentration of […] cells/mL in 30 uL RPMI1640 media using a BioTek MicroFill (BioTek). Four 384-well plates were prepared per cell line (Greiner bio-one, catalog number 781091). The next day, compound was added using Bravo liquid handler. […] To other plates, compound was added and plates were incubated for 72 hrs. Following incubation period, 10 ul of the media was removed using the ELx405 Microplate Washer (BioTek/Thermo Scientific). […]
(§3) An automated image analysis pipeline was established using custom-made scripts in the open-source, statistical programming language R, and functions of the BioConductor package EBImage. The goal was to quantify the number of viable nuclei (cells) per well as an approximation for cell viability. […]

[3] = tested on: liposarcoma cell line 449b; assay: Microscopy (nuclei count) proliferation assay, 72 hrs, 449b cells; assay type: cell-based; details: single agent
Protocol: as §1
as §2, with “profiling. […]” for “profiling.”
as §3

[4] = tested on: liposarcoma cell line LP6; assay: Microscopy (nuclei count) proliferation assay, 72 hrs, LP6 cells; assay type: cell-based; details: single agent
Protocol: as §1
as §2, with “profiling. […]” for “profiling.”
as §3

COc1cc2c(cc1OC(C)C)[C@H](c1ccc(Cl)cc1)N(c1ccc(N(C)C[C@H]3CC[C@H](N4CCN(C)C(=O)C4)CC3)cc1)C(=O)C2 [Compound A, (S)-1-(4-Chloro-phenyl)-7-isopropoxy-6-methoxy-2-(4-{methyl-[4-(4-methyl-3-oxo-piperazin-1-yl)-trans-cyclohexylmethyl]-amino}-phenyl)-1,4-dihydro-2H-isoquinolin-3-one]
Host ΔBW [1]: 6.9 ± 2.0% | Host Survival [1]: 5/5 | Tumor T/C (HSAX2655 tumor): 6% | Tumor ΔTvol (HSAX2655 tumor): 24 ± 12 ^a mm^3

COc1ncc(-c2nc3c(n2C(C)C)[C@H](c2ccc(Cl)cc2)N(c2cc(Cl)cn(C)c2=O)C3=O)c(OC)n1 [Compound B, (S)-5-(5-Chloro-1-methyl-2-oxo-1,2-dihydro-pyridin-3-yl)-6-(4-chloro-phenyl)-2-(2,4-dimethoxy-pyrimidin-5-yl)-1-isopropyl-5,6-dihydro-1H-pyrrolo[3,4-d]imidazol-4-one]
IC50 ([2]; 72 h): 46.6 nM | IC50 [2]: 64.6 nM | IC50 [3]: 27.7 nM | IC50 [4]: 86 nM

CN(C)C(=O)c1cc2cnc(Nc3ccc(N4CCNCC4)cn3)nc2n1C1CCCC1 [Compound C, 7-Cyclopentyl-2-(5-piperazin-1-yl-pyridin-2-ylamino)-7H-pyrrolo[2,3-d]pyrimidine-6-carboxylic acid dimethylamide]
IC50 ([2]; 72 h): 59.3 nM | Host ΔBW [1]: 4.7 ± 2.3% | Host Survival [1]: 5/5 | Tumor T/C (HSAX2655 tumor): 18% | Tumor ΔTvol (HSAX2655 tumor): 66 ± 18 ^a mm^3 | IC50 [3]: 130 nM | IC50 [4]: 475 nM
